Test results reported in PMC5651055, “Effects of Resveratrol on the Structure and Catalytic Function of Bovine Liver catalase (BLC): Spectroscopic and Theoretical Studies” (Advanced Pharmaceutical Bulletin, 2017).

Biological target: T1, Bovine liver catalase (BLC) (Bos taurus, UniProt P00432)
T1 construct: gene CAT; native homotetramer from bovine liver (Sigma-Aldrich)
T1 sequence (P00432 2-527): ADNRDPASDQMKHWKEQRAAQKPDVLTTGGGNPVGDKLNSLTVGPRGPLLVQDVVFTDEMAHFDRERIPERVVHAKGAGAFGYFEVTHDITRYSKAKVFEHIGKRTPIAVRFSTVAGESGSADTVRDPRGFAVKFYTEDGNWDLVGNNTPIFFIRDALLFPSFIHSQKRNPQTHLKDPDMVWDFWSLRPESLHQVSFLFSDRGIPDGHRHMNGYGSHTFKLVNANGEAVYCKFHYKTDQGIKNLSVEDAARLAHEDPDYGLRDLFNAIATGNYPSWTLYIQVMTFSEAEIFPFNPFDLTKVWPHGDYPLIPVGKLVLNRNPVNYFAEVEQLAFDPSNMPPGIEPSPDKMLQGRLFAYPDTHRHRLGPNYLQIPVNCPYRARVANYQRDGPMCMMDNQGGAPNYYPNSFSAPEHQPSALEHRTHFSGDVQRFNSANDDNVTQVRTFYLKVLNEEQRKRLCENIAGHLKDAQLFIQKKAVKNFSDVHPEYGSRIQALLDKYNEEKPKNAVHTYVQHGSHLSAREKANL
Test: H2O2 decomposition at A240 with purified BLC; supported by fluorescence quenching (K =[…] ^-1 at […] °C, n = […])
Assay type: biochemical

Oc1ccc(/C=C/c2cc(O)cc(O)c2)cc1 [tRES, trans resveratrol]
IC50: 8.1 µM
